# Test results taken from patent US20220256854A1, “PLANT TREATMENT COMPOSITION” (Croda International Plc, priority 2019, published 2022).
# How the values were obtained:
# Type in all cases: in vivo
# [1] = test system: Brachiaria decumbens; test: Glufosinate absorption in Brachiaria decumbens with Mn formulations (Example 1, Study 1); conditions: glufosinate 2 l/ha; Mn formulation at 100 g/ha Mn where applied; 36 hours after application
# Method: (§1) Studies were conducted to evaluate the effect of an Mn formulation containing manganese on the absorption of glufosinate (Study 1) and glyphosate (Study 2) using Brachiaria decumbens as a model weed species.
# Study 1. Seed of Brachiaria decumbens were planted into pots in a greenhouse during January 2015. This experiment was designed as a randomized complete block with six replications. Each plant was sprayed in a spray chamber with one of six treatments (Table 1) 19 days after planting.
# The amount of glufosinate on the plant surface (not absorbed) and that penetrated plant tissue (absorbed) was measured 36 hours after application of a treatment using chromatography and spectrometry.
# [2] = test system: Brachiaria decumbens; test: Field trial, glufosinate with Formulation A, weed control (Example 4); conditions: Formulation A @ 1 l/ha where applied, mean of 7, 14, 28 daa
# Method: (§2) A study was conducted to evaluate the effect of an Mn formulation on glufosinate efficacy, as measured by the control of individual grass and broadleaf weed species.
# (§3) The trial was designed as a randomized complete block with three replications of four treatments (Table 9). The trial was planted at one location in Brazil during March 2016. Weed control was assessed 7, 14, and 28 daa.
# [3] = test system: Brachiaria plantaginea; test: as above; conditions: Formulation A @ 1 l/ha where applied, mean of 7, 14, 28 daa
# Method: as §2, §3
# [4] = test system: Cenchrus echinatus; test: as above; conditions: Formulation A @ 1 l/ha where applied, mean of 7, 14, 28 daa
# Method: as §2, §3
# [5] = test system: Digitaria horizontalis; test: as above; conditions: Formulation A @ 1 l/ha where applied, mean of 7, 14, 28 daa
# Method: as §2, §3
# [6] = test system: Ipomoea acuminate; test: as above; conditions: Formulation A @ 1 l/ha where applied, mean of 7, 14, 28 daa
# Method: as §2, §3
# [7] = test system: individual grass and broadleaf weed species; test: Field trial, glufosinate with Formulation A, weed control, average over five weed species (Example 4); conditions: Formulation A @ 1 l/ha where applied, average of five weed species
# Method: as §2, §3
# [8] = test system: Brachiaria decumbens; test: Glyphosate absorption in Brachiaria decumbens with Mn formulations (Example 1, Study 2); conditions: glyphosate 3.5 l/ha; Mn formulation at 100 g/ha Mn where applied; four days after application
# Method: as §1
# Study 2. Seed of Brachiaria decumbens were planted into pots in a greenhouse during January 2015. This experiment was designed as a randomized complete block with six replications. Each plant was sprayed in a spray chamber with one of six treatments (Table 3) 25 days after planting.
# The amount of glyphosate on the plant surface (not absorbed) and that penetrated plant tissue (absorbed) was measured four days after application (daa) of a treatment using chromatography and spectrometry.
# [9] = test system: Broadleaf weeds; test: Field trial, glyphosate with Mn formulation, control of broadleaf weeds (Example 2); conditions: glyphosate 1 l/ha; V2 soybean growth stage; 7 daa; six locations in Brazil
# Method: (§4) A study was carried out to evaluate the effect of an Mn formulation on the efficacy of glyphosate, as measured by the control of broadleaf and grass weed species.
# (§5) The trial was designed as a randomized complete block with six replications of five treatments (Table 5). The trial was planted at each of six locations in Brazil during the 2015 season. All treatments were applied at the V2 soybean growth stage using backpack sprayers. Soybeans were sown at a rate consistent with locally recommended practices into plots that were approximately 4 m long and 5 m wide.
# (§6) Data collected from a 1 m^2 area of each plot included the number of broadleaf and grass weeds, by genus and species, at the V2 soybean growth stage immediately prior to treatment application. The number of dead/damaged and undamaged weeds, by genus and species, was collected from the same 1 m^2 area of each plot 7 daa of a treatment. Treatment 2 (glyphosate alone) was used as the control.
# [10] = test system: Grass weeds; test: Field trial, glyphosate with Mn formulation, control of grass weeds (Example 2); conditions: glyphosate 1 l/ha; V2 soybean growth stage; 7 daa; six locations in Brazil
# Method: as §4, §5, §6
# [11] = test system: Amaranthus retroflexus; test: Field trial, glyphosate with Formulation A, weed control (Example 3); conditions: Formulation A @ 1 l/ha where applied, mean of 7, 14, 28 daa
# Method: (§7) A study was conducted to evaluate the effect of an Mn formulation on glyphosate efficacy, as measured by the control of individual grass and broadleaf weed species.
# (§8) The trial was designed as a randomized complete block with three replications of four treatments (Table 7). The trial was planted at one location in Brazil during March 2016. Weed control was assessed 7, 14, and 28 daa.
# [12] = test system: Brachiaria decumbens; test: as above; conditions: Formulation A @ 1 l/ha where applied, mean of 7, 14, 28 daa
# Method: as §7, §8
# [13] = test system: Brachiaria plantaginea; test: as above; conditions: Formulation A @ 1 l/ha where applied, mean of 7, 14, 28 daa
# Method: as §7, §8
# [14] = test system: Cenchrus echinatus; test: as above; conditions: Formulation A @ 1 l/ha where applied, mean of 7, 14, 28 daa
# Method: as §7, §8
# [15] = test system: Digitaria horizontalis; test: as above; conditions: Formulation A @ 1 l/ha where applied, mean of 7, 14, 28 daa
# Method: as §7, §8
# [16] = test system: Euphorbia heterophylla; test: as above; conditions: Formulation A @ 1 l/ha where applied, mean of 7, 14, 28 daa
# Method: as §7, §8
# [17] = test system: Ipomoea acuminate; test: as above; conditions: Formulation A @ 1 l/ha where applied, mean of 7, 14, 28 daa
# Method: as §7, §8
# [18] = test system: individual grass and broadleaf weed species; test: Field trial, glyphosate with Formulation A, weed control, average over seven weed species (Example 3); conditions: Formulation A @ 1 l/ha where applied, average of seven weed species
# Method: as §7, §8
# [19] = test system: weed species; test: Field trial, glyphosate with K formulation, weed control (Example 5, Study 1); conditions: Glyphosate @ 2 l/ha, no formulation
# Method: (§9) Three studies were conducted to evaluate the effect of a K formulation on glyphosate efficacy, as measured by the control of weed species.
# Study 1. The trial was designed as a randomized complete block with two replications of five treatments (Table 11). The trial was planted at one location in Brazil during 2011. Weed control was assessed 14 and 25 daa.
# [20] = test system: weed species; test: Field trial, glyphosate with K formulation, weed control (Example 5, Study 2); conditions: Glyphosate @ 2 l/ha, Formulation @ 5 l/ha where applied
# Method: as §9
# Study 2. The trial was designed as a randomized complete block with two replications of six treatments (Table 13). The trial was planted at one location in Brazil during 2011. Weed control was assessed 14 and 25 daa.
# [21] = test system: weed species; test: Field trial, glyphosate with K formulation, weed control (Example 5, Study 3); conditions: Glyphosate @ 2 l/ha, Formulation @ 5 l/ha where applied
# Method: as §9
# Study 3. The trial was designed as a randomized complete block with two replications of six treatments (Table 15). The trial was planted at one location in Brazil during 2011. Weed control was assessed 14 and 25 daa.
smiles,measurement,setting,value
"CP(=O)(O)CCC(N)C(=O)O (centres unmarked) [Glufosinate, glufosinate]",Glufosinate Absorbed (%),[1],24.0%
same,Weed control (%) BRADC,[2]; Glufosinate @ 1.5 l/ha,89.3%
same,Weed control (%) BRADC,[2]; Glufosinate @ 2.5 l/ha,91.1%
same,Weed control (%) BRAPL,[3]; Glufosinate @ 1.5 l/ha,78.6%
same,Weed control (%) BRAPL,[3]; Glufosinate @ 2.5 l/ha,88.2%
same,Weed control (%) CCHEC,[4]; Glufosinate @ 1.5 l/ha,62.8%
same,Weed control (%) CCHEC,[4]; Glufosinate @ 2.5 l/ha,78.7%
same,Weed control (%) DIGHO,[5]; Glufosinate @ 1.5 l/ha,67.0%
same,Weed control (%) DIGHO,[5]; Glufosinate @ 2.5 l/ha,82.9%
same,Weed control (%) IPOAC,[6]; Glufosinate @ 1.5 l/ha,96.7%
same,Weed control (%) IPOAC,[6]; Glufosinate @ 2.5 l/ha,100.0%
same,Weed control (%) Ave,[7]; Glufosinate @ 1.5 l/ha,78.9%
same,Weed control (%) Ave,[7]; Glufosinate @ 2.5 l/ha,88.2%
"O=C(O)CNCP(=O)(O)O [Glyphosate, glyphosate]",Glyphosate Absorbed (%),[8],21.0%
same,Weed control (%) Broadleaf weeds,[9],83.8%
same,Weed control (%) Grass weeds,[10],97.7%
same,Weed control (%) AMARE,[11]; Glyphosate @ 1 l/ha,69.6%
same,Weed control (%) AMARE,[11]; Glyphosate @ 2 l/ha,84.7%
same,Weed control (%) BRADC,[12]; Glyphosate @ 1 l/ha,83.0%
same,Weed control (%) BRADC,[12]; Glyphosate @ 2 l/ha,90.2%
same,Weed control (%) BRAPL,[13]; Glyphosate @ 1 l/ha,91.2%
same,Weed control (%) BRAPL,[13]; Glyphosate @ 2 l/ha,95.9%
same,Weed control (%) CCHEC,[14]; Glyphosate @ 1 l/ha,95.0%
same,Weed control (%) CCHEC,[14]; Glyphosate @ 2 l/ha,98.7%
same,Weed control (%) DIGHO,[15]; Glyphosate @ 1 l/ha,96.3%
same,Weed control (%) DIGHO,[15]; Glyphosate @ 2 l/ha,99.0%
same,Weed control (%) EPHHL,[16]; Glyphosate @ 1 l/ha,65.4%
same,Weed control (%) EPHHL,[16]; Glyphosate @ 2 l/ha,77.4%
same,Weed control (%) IPOA,[17]; Glyphosate @ 1 l/ha,34.8%
same,Weed control (%) IPOA,[17]; Glyphosate @ 2 l/ha,52.6%
same,Weed control (%) Ave,[18]; Glyphosate @ 1 l/ha,76.5%
same,Weed control (%) Ave,[18]; Glyphosate @ 2 l/ha,85.5%
same,Weed control (%) 14 daa,[19]; 14 daa,85%
same,Weed control (%) 25 daa,[19]; 25 daa,96.5%
same,Weed control (%) 14 daa,[20]; 14 daa,82.5%
same,Weed control (%) 25 daa,[20]; 25 daa,96.5%
same,Weed control (%) 14 daa,[21]; 14 daa,85%
same,Weed control (%) 25 daa,[21]; 25 daa,90%
